Source: patent publication US7351695B2, “Topiramate salts and compositions comprising and methods of making and using the same” (Ortho-McNeil Pharmaceuticals, Inc., priority 2002, dated 2008)
Values joined by “and” are separate entries in the source; they are usually repeats but may differ in a detail not shown here. Equal values may be shown once. Read-outs that look alike come from different tables or passages of the source. Each block holds one molecule with its values, some of them ahead of it.

Tests used:
[1] = Oral pharmacokinetics in rats, capsules by gavage, plasma by LC/MS/MS; assay type: in vivo, male Sprague-Dawley rats; conditions: rat
[2] = Estimation of solubility: minimum solvent needed to dissolve a known amount; assay type: physicochemical; conditions: for Solubility (amount of solid in mL of solvent): sodium trihydrate
Procedure: The solubility of the topiramate sodium trihydrate prepared in this example in water, ethanol, methanol, and THF was estimated by determining the minimum amount of solvent necessary to dissolve a known amount of the compound. In general, a predetermined amount of the compound was placed in a small glass vial, and then solvent was added drop-wise at room temperature until no visible solid remained in the vial.

[3] = Dissolution curves in 0.01 N HCl; assay type: physicochemical; conditions: for state at the end of the dissolution experiment: nominal about 110 mM (37 mg/mL free acid concentration)
Text: FIG. 6 provides results of a comparison between the aqueous solubility of topiramate sodium trihydrate with that of topiramate. […] Independently, a set of dissolution curves were obtained in 0.01 N HCl (representative of a modestly acidic stomach), and these are shown in FIG. 7.

[4] = Chemical stability by HPLC analysis of stored samples; assay type: physicochemical
[5] = pH of an aqueous solution (pH meter); assay type: physicochemical; conditions: 400 mg/mL solution in distilled water
[6] = Physical stability by TGA and PXRD at preset temperature and relative humidity; assay type: physicochemical; conditions: for Physical stability result (solid form): 2 weeks
Procedure: A further study on physical stability of a sample from this example was conducted in glass vials at preset temperatures and controlled relative humidities. The humidities stored at room temperature were controlled using saturated salt solutions (see H. Nyquist, Pharm. Tech. 4(2):47-48 (1983)). At other temperatures, the oven configurations allowed humidity control. After 2 weeks, samples at various conditions were tested by TGA and PXRD to assess whether the crystalline topiramate sodium trihydrate remained intact or not. The data in Table 3 summarize findings after 2 weeks of incubation.

[7] = cited from earlier work
[8] = in vivo; cited from earlier work
kindled seizures = conditions: rats; cited from earlier work
[9] = nominal concentration about 110 mM

Tmax ([1]; male, Sprague-Dawley, plasma, oral capsule, 30 mg/kg free topiramate equivalent, first time point, read-out: time of peak plasma concentration (tmax)): 30 min
solubility ([2]; THF, room temperature (slight overestimate), read-out: Solubility (amount of solid in mL of solvent)): 44.2 mg/mL
solubility ([2]; ethanol, room temperature, read-out: Solubility (amount of solid in mL of solvent)): 376 mg/mL
solubility ([2]; methanol, room temperature, single trials, read-out: Solubility (amount of solid in mL of solvent)): 1280 mg/mL
Solubility (amount of solid in mL of solvent) ([2]; methanol, room temperature, single trials): 1600 mg/mL and 1530 mg/mL
solubility ([2]; methanol, room temperature, read-out: Average Solubility): 1470 mg/mL
aqueous solubility relative to topiramate ([2]; vs. literature value of […]): over 100 times
solubility ([2]; water, FIG. 6, read-out: aqueous solubility): 1300 mg/mL
solubility ([2]; water, room temperature, single trials, read-out: Solubility (amount of solid in mL of solvent)): 1240 mg/mL
Solubility (amount of solid in mL of solvent) ([2]; water, room temperature, single trials): 1435 mg/mL
solubility ([2]; water, room temperature, read-out: Average Solubility): 1330 mg/mL
solubility at the equilibrium condition relative to (1) and (3) [3]: increased solubility
state at the end of the dissolution experiment ([3]; listed as topiramate sodium salt trihydrate, sodium trihydrate): not saturated
pH at the equilibrium condition [3, 9]: 9.5
chemical degradation by HPLC ([4]; 2 weeks at 25° C./<5% RH, 25° C./31% RH, 25° C./75% RH, 40° C./ambient RH, or 40° C./75% RH): No chemical degradation
chemical degradation by HPLC ([4]; >12 weeks at 25° C./<5% RH, 25° C./31% RH, 25° C./75% RH, or 40° C./75% RH): No chemical degradation
chemical degradation by HPLC ([4]; stored at or above 60° C. for at least 2 weeks): Degradates were observed
pH of solution [5]: about 11.2
Physical stability result (solid form) ([6]; 5 °C, ambient RH (refrigerated)): Trihydrate
Physical stability result (solid form) ([6]; 25 °C, 31% RH): Trihydrate
Physical stability result (solid form) ([6]; 25 °C, 75% RH): Trihydrate
Physical stability result (solid form) ([6]; 25 °C, <5% RH): Trihydrate & some amorphous
Physical stability result (solid form) ([6]; 40 °C, 75% RH): Trihydrate
Physical stability result (solid form) ([6]; 40 °C, ambient RH (<20)): Trihydrate
Physical stability result (solid form) ([6]; 60 °C, ambient RH (<10)): Amorphous
Physical stability result (solid form) ([6]; 80 °C, ambient RH (<5)): Amorphous
temperature up to which the hydrate stays intact ([6]; by TGA): ≤ 40 °C
Structure (SMILES): CC1(C)O[C@@H]2[C@@H](CO[C@@]3(COS(N)(=O)=O)OC(C)(C)O[C@@H]23)O1 [topiramate sodium trihydrate]
plasma profile, comparison in words ([1]; oral, 30 mg/kg, FIG. 10): comparable to an oral solution of TOPAMAX®

state at the end of the dissolution experiment ([3]; listed as topiramate crystal form): remained as suspensions
time at which dissolution was essentially complete [3, 9]: 5 min
Structure (SMILES): CC1(C)O[C@@H]2[C@@H](CO[C@@]3(COS(N)(=O)=O)OC(C)(C)O[C@@H]23)O1 [topiramate, 2,3:4,5-Di-O-isopropylidene-β-D-fructopyranose sulfamate]
solubility in acetone, chloroform, dimethylsulfoxide, and ethanol [7]: freely soluble
time to reach peak plasma levels [8]: about two
blocking kindled seizures (kindled seizures): effective in blocking kindled seizures
